Measurements published in patent publication US8110681B2, “Compounds for the treatment of spinal muscular atrophy and other uses” (The United States of America as represented by the …, priority 2006, dated 2012).
Like-named read-outs stand apart in the source and are kept apart here.

Experiments:
[1] = tested on: luciferase reporter containing the UAG stop codon; experiment: Translational read-through luciferase reporter assay, UAG stop codon; assay type: cell-based; conditions: read-out: MaxFold Increase
Description: This assay is described in detail in WO 01/44516 A2. This is a cell-based luciferase reporter assay designed to detect translational read-through via insertion of a translational stop codon within the luciferase coding sequence. In the presence of compounds that promote read-through of translational stop codons, active luciferase is produced and detected via chemiluminescence. We have shown that indoprofen analogs are active in two versions of this assay—one containing a UGA stop codon and one containing a UAG stop codon. The data in the table is from the luciferase reporter containing the UAG stop codon. This is the first stop codon downstream of the improper splice junction between exons 6 and 8 in the human SMN2 transcript.

[2] = tested on: SMN2-linked luciferase-reporter gene construct; experiment: SMN splice reporter assay (SMN2-linked luciferase reporter, Example 10); assay type: cell-based; conditions: for maximal fold induction: read-out: SMN Splice Reporter Assay (Example 10) Avg MaxFold Increase
How it was run: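 Cervical carcinoma cells stably carrying an SMN2–luciferase splice reporter, in which luciferase is in frame only when SMN2 exon 7 is included, were treated with compound. Luciferase activity was read and expressed as fold increase over untreated transformed cells.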

[3] = SMN2-linked luciferase reporter, average
[4] = maximum fold increase of reporter signal, average
[5] = SMN2-linked luciferase reporter, average maximum fold increase

Row | EC50 [2, 3] | Compound | maximal fold induction [1] | maximal fold induction [2, 4] | maximal fold induction [2, 5]
1 | 267 nM | CC(C(=O)O)c1ccc(N2Cc3ccc(Cl)cc3C2=O)cc1 (centres unmarked) [ALB-111743] | 2.7 | 1.67 | –
2 | 565 nM | CCCc1ccc2c(c1)C(=O)N(c1ccc(C(C)C(=O)OC(C)(C)C)cc1)C2 (centres unmarked) [ALB-113213] | 1.9 | 1.23 | –
3 | 28 nM | CC(C(=O)O)c1ccc(N2Cc3ccc(N(C)C)cc3C2=O)cc1 (centres unmarked) [ALB-113648] | 3.3 | 1.6 | –
4 | 1490 nM | CC(C(=O)O)c1ccc(N2Cc3ccc(C(F)(F)F)cc3C2=O)cc1 (centres unmarked) [ALB-113652] | 2.9 | 1.66 | –
5 | 52 nM | CC(C)c1ccc(N2Cc3ccccc3C2=O)cc1 [ALB-114274] | 2.6 | 1.4 | –
6 | 76 nM | COc1ccc2c(c1)C(=O)N(c1ccc(C(C)C(O)OC)cc1)C2 (centres unmarked) [ALB-114441] | 3.2 | 1.67 | –
7 | 186 nM | COCC(C)c1ccc(N2Cc3ccc(OC)cc3C2=O)cc1 (centres unmarked) [ALB-114783] | 2.6 | 1.37 | –
8 | 8 nM | CC(C(=O)O)c1ccc(N2Cc3cc4c(cc3C2=O)OCCO4)cc1 (centres unmarked) [ALB-114844] | 2.4 | 1.36 | –
9 | 193 nM | CC(C)c1ccc(N2Cc3ccc(Br)cc3C2=O)cc1 [ALB-114901] | 2.6 | 1.52 | –
10 | 60 nM | COc1ccc2c(c1)C(=O)N(c1ccc(C)cc1)C2 [ALB-115084] | 2.3 | 1.39 | –
11 | 401 nM | CC(C#N)c1ccc(N2Cc3cc4c(cc3C2=O)OCCO4)cc1 (centres unmarked) [ALB-117571] | – | – | 1.3
12 | 163 nM | CC(C)c1ccc(N2Cc3cccc(N)c3C2=O)cc1 [ALB-117574] | – | 1.73 | –
13 | 319 nM | COc1cc2c(cc1OC)C(=O)N(c1ccc(C(C)C)cc1)C2 [ALB-117672] | – | 1.47 | –
14 | 34 nM | CC(C)c1ccc(N2Cc3cc(N)ccc3C2=O)cc1 [ALB-117747] | – | 1.49 | –
15 | 166 nM | COc1cccc2c1C(=O)N(c1ccc(C(C)C)cc1)C2 [ALB-117748] | – | 1.34 | –
16 | 27 nM | CC(C)c1ccc(N2Cc3ccc4c(c3C2=O)OCO4)cc1 [ALB-117751] | – | – | 1.34
17 | 42 nM | CC(C)c1ccc(N2Cc3cc(N(C)C)ccc3C2=O)cc1 [ALB-117752] | – | 1.38 | –
18 | 183 nM | CC(C)c1ccc(N2Cc3cccc(I)c3C2=O)cc1 [ALB-117753] | – | 1.6 | –
19 | – | COc1cc2c(c(OC)c1Br)C(=O)N(c1ccc(C(C)C)cc1)C2 [ALB-117901] | – | 1.07 | –
20 | – | CC(C)c1ccc(N2Cc3ccc(O)c(O)c3C2=O)cc1 [ALB-117903] | – | – | 1.07
21 | 4370 nM | CC(C)c1ccc(N2Cc3cccc(N(C)C)c3C2=O)cc1 [ALB-117904] | – | 1.46 | –
22 | 414 nM | CNc1cccc2c1C(=O)N(c1ccc(C(C)C)cc1)C2 [ALB-117905] | – | 1.55 | –
23 | 447 nM | COc1cc2c(c(OC)c1)C(=O)N(c1ccc(C(C)C)cc1)C2 [ALB-118034] | – | 1.3 | –
24 | – | COc1cc2c(cc1O)CN(c1ccc(C(C)C)cc1)C2=O [ALB-118035] | – | – | 1.13
25 | 2670 nM | COc1ccc2c(c1OC)C(=O)N(c1ccc(C(C)C)cc1)C2 [ALB-118036] | – | 1.29 | –
26 | 937 nM | CC(C)c1ccc(N2Cc3ccc(-c4ccccc4)cc3C2=O)cc1 [ALB-118037] | – | 1.34 | –
27 | – | COc1ccc(-c2ccc3c(c2)C(=O)N(c2ccc(C(C)C)cc2)C3)cc1 [ALB-118038] | – | 1.08 | –

Row | EC50 [2, 3] | Compound | maximal fold induction [1] | maximal fold induction [2, 4] | maximal fold induction [2, 5]
28 | 203 nM | CC(=O)Nc1ccc2c(c1)C(=O)N(c1ccc(C(C)C)cc1)C2 [ALB-118157] | – | – | 1.51
29 | 733 nM | CC(C)c1ccc(N2Cc3cccc(O)c3C2=O)cc1 [ALB-118158] | – | – | 1.54
30 | 2090 nM | CC(C)c1ccc(N2Cc3cc(OC(F)F)ccc3C2=O)cc1 [ALB-118159] | – | – | 1.32
31 | 46 nM | CC(C)c1ccc(N2Cc3ccc4c(c3C2=O)OCCO4)cc1 [ALB-118160] | – | – | 1.43
32 | – | CCOc1ccc2c(c1)CN(c1ccc(C(C)C)cc1)C2=O [ALB-118276] | – | 1.05 | –
33 | 27 nM | CC(C)c1ccc(N2Cc3cc(O)ccc3C2=O)cc1 [ALB-118277] | – | – | 1.15
34 | 1380 nM | CCOc1cccc2c1C(=O)N(c1ccc(C(C)C)cc1)C2 [ALB-118278] | – | 1.5 | –
35 | 220 nM | CC(C)c1ccc(N2Cc3cccc(OC(F)F)c3C2=O)cc1 [ALB-118279] | – | – | 1.55
36 | 119 nM | COc1cc2c(cc1F)CN(c1ccc(C(C)C)cc1)C2=O [ALB-118413] | – | 1.39 | –
37 | 3530 nM | CCNC(=O)Nc1ccc2c(c1)C(=O)N(c1ccc(C(C)C)cc1)C2 [ALB-118414] | – | – | 1.35
38 | 13200 nM | CCCNC(=O)Nc1ccc2c(c1)C(=O)N(c1ccc(C(C)C)cc1)C2 [ALB-118415] | – | – | 1.4
39 | – | CC(C)c1ccc(N2Cc3ccc(NC(=O)Nc4ccccc4)cc3C2=O)cc1 [ALB-118416] | – | – | 1.17
40 | 865 nM | CNC(=O)Nc1ccc2c(c1)C(=O)N(c1ccc(C(C)C)cc1)C2 [ALB-118558] | – | – | 1.58
41 | – | CC(C)NC(=O)Nc1ccc2c(c1)C(=O)N(c1ccc(C(C)C)cc1)C2 [ALB-118559] | – | – | 1.1
42 | 854 nM | CC(C)c1ccc(N2Cc3ccc(NC(=O)N(C)C)cc3C2=O)cc1 [ALB-118731] | – | – | 1.2
43 | – | CCN(C)C(=O)Nc1ccc2c(c1)C(=O)N(c1ccc(C(C)C)cc1)C2 [ALB-118732] | – | – | 1.15
44 | – | CC(C)c1ccc(N2Cc3ccc(NC(=O)N(C)c4ccccc4)cc3C2=O)cc1 [ALB-118733] | – | – | 1.12
45 | – | CCCN(C)C(=O)Nc1ccc2c(c1)C(=O)N(c1ccc(C(C)C)cc1)C2 [ALB-118898] | – | – | 1.06
46 | – | CC(C)c1ccc(N2Cc3ccc(NC(=O)N(C)C(C)C)cc3C2=O)cc1 [ALB-118899] | – | – | 1.08
47 | 493 nM | CC(C)c1ccc(N2Cc3ccc(N(C)C(=O)N(C)C)cc3C2=O)cc1 [ALB-118901] | – | – | 1.31
48 | 992 nM | CC(C)(C)c1ccc(N2Cc3ccc(OC(F)F)cc3C2=O)cc1 [ALB-119043] | – | – | 1.39
49 | 255 nM | COc1cc2c(cc1F)CN(c1ccc(C(C)C(=O)O)cc1)C2=O (centres unmarked) [ALB-119048] | – | 1.54 | –
50 | – | CCN(C)C(=O)N(C)c1ccc2c(c1)C(=O)N(c1ccc(C(C)C)cc1)C2 [ALB-119049] | – | – | 1.08
51 | 51 nM | CC(C(=O)O)c1ccc(N2Cc3ccc(OC(F)F)cc3C2=O)cc1 (centres unmarked) [ALB-119335] | – | – | 1.54
52 | 718 nM | CC(C(=O)OC(C)(C)C)c1ccc(N2Cc3ccc(OC(F)F)cc3C2=O)cc1 (centres unmarked) [ALB-119336] | – | – | 1.21
53 | 146 nM | Cc1ccc(N2Cc3ccc(OC(F)F)cc3C2=O)cc1 [ALB-119515] | – | – | 1.46
